Results as given in patent US11331318B2, “Arterial oxygen saturation degree improver” (FURUKAWA RESEARCH OFFICE CO., LTD., priority 2017, dated 2022).

Experiments:
[1] = system: ddY male mice; assay: Oxygen consumption during forced treadmill exercise in mice (reference example 2); format: in vivo, mouse; settings: 5 times a week for 3 weeks
Protocol: In order to verify whether orotic acid has an effect of decreasing the oxygen consumption during exercise or not, the following test was performed. Twenty-four ddY male mice (6-week old) bred in a thermostatic animal chamber of 24±2° C. for one week or more under a light-dark cycle of 12 hours (lighting from 8:00 to 20:00) were prepared. These mice were divided into two groups. Each mouse in one group, CTL group, was administered with 0.5 mass % CMC solution in an amount of 10 mL per 1 kg of mouse body weight. Each mouse in the other group, OA group, was administered with 50 mg/mL of orotic acid suspended in 0.5 mass % CMC solution in an amount of 10 mL per 1 kg of mouse body weight. These administrations were performed 5 times a week for successive 3 weeks (15 times in total) for each mouse. Fasting of each mouse was started at 17:00 on the day of last administration. The mice were subjected to forced exercise using a mouse treadmill from 10:00 on the following day, and the oxygen consumption and the carbon dioxide production volume during exercise were measured. Incidentally, the forced exercise was performed for 30 minutes in total at a speed of 15 m/min for first 5 minutes, at a speed of 20 m/min for the following 5 minutes, and then at a speed of 25 m/min for 20 minutes. […] In addition, the respiratory quotient of each mouse was calculated as a value obtained by dividing the carbon dioxide production volume by the oxygen consumption.

[2] = system: human subjects in normobaric hypoxic room (oxygen concentration 12.4 to 12.7%); assay: SpO2 and heart rate in a normobaric hypoxic room before and after administration of orotic acid; format: in vivo
Protocol: A person (subject A) entered a normobaric hypoxic room (oxygen concentration: 12.4 to 12.7%, equivalent to that at an altitude of about 4000 m, 23° C.) of Miura Dolphins and was then administered with 400 mg of orotic acid by repeating twice a method (sublingual administration) in which a mixture (400 mg) of free form orotic acid (manufactured by Kyowa Hakko Bio Co., Ltd., 200 mg) and L-carnitine (manufactured by Lonza Japan Ltd., 200 mg) wrapped in wafer paper was placed under the tongue and allowed to stay in the mouth for at least 30 seconds, and the SpO2 and heart rate were measured using a pulse oximeter PULSOX-300i (manufactured by Konica Minolta, Inc.). Incidentally, in this example, carnitine was used for enhancing the solubility of orotic acid in water (absorbability into oral mucosa (see Japanese unexamined Patent Application Publication No. 2015-43743). Subject A was required not to consciously change their breathing after entering the room. Three subjects ([subject A: the same subject as that Example 1], [subject B], and [subject C]) were subjected to a test according to the method described in [Test method 1] above. Subject A was subjected to examination of swallowing (oral administration) two tablets each containing 200 mg of free form orotic acid monohydrate (manufactured by Kyowa Hakko Bio Co., Ltd.) (400 mg of orotic acid in total) for comparison with sublingual administration. In this test, the oxygen concentration in the room was stable within a range of 12.4% to 12.7% throughout the test period.

[3] = system: person suspected of having sleep apnea syndrome (SAS); assay: SpO2 at apnea or hypopnea state in a person suspected of having sleep apnea syndrome; format: in vivo, human; settings: one tablet of orotic acid-containing throat candy at bedtime, oral absorption
Description: A person suspected of having sleep apnea syndrome (SAS) ingested one tablet of the placebo throat candy manufactured in Example 3 at bedtime, and the maximum time of sleep apnea (a state in which breathing stops for 10 seconds of more) or hypopnea (a state in which ventilation by breathing falls to 50% or less for 10 seconds or more), which are detected with testing equipment for sleep apnea syndrome lent from a medical corporation Koshikai Ginza Yasue Clinic, and the SpO2 level at that time was measured two nights by the method in Example 1 (these levels are written by numerical numbers in the diagnostic results analyzed by the clinic software). The women then ingested one tablet of the orotic acid-containing throat candy manufactured in Example 3 at bedtime, and the maximum time of sleep apnea or hypopnea state and the SpO2 level at that time was measured by the same method as above two nights. In FIG. 6, the results in ingestion of one tablet of placebo throat candy are shown by round-shaped plots, and the results in ingestion of one tablet of orotic acid-containing throat candy are shown by diamond-shaped plots.

[4] = system: male ddY mice; assay: Limit swimming time in mice (reference example 3); format: in vivo, mouse
Protocol: The endurance-enhancing effect was verified using orotic acid as a test substance. Seven-week old male ddY mice were purchased from Japan SLC, Inc. and were each acclimatized for 7 days and then forced to swim with a weight on the tail. When a mouse could not come up to the water surface and stayed under the surface of the water for 5 seconds, the time thereof was measured as the limit swimming time. The mice were divided into groups, such that there was no difference in limit swimming time between the groups, as follows: control group (CTL group, n=10), orotic acid 250 mg/kg administration group (OA 250 mg/kg group, n=10), and orotic acid 500 mg/kg administration group (OA 500 mg/kg group, n=10). The mice in each group were bred using roughage (CE-2), and the mice in OA 250 mg/kg group and OA 500 mg/kg group were orally administered with 250 mg/kg of orotic acid and 500 mg/kg of orotic acid, respectively, five times a week. After the grouping, the limit swimming time in each group was measured once a week while being bred for 3 weeks.

[5] = system: healthy women performing bike exercise; assay: Change in plasma uric acid level after bike exercise (uricase-POD method); format: in vivo, human; settings: non-ingestion group increase of 0.2 mg/dL
Protocol: Six 22-year-old healthy women were divided into three groups of two. All the women were fasted for 24 hours (allowed only to drink water or tea), and two women of one group ingested one tablet of the orotic acid-containing throat candy (OA mouth-dissolving tablet), two women of another group ingested one tablet of the free form orotic acid monohydrate-containing tablets manufactured in Example 2 (OA tablet), and two women of the remaining group ingested one tablet of the placebo throat candy (non-ingestion), and the women performed bike exercise (exercise intensity: […]) for 30 minutes. Changes in energy consumption and changes in plasma uric acid level were measured at 2 hours, 3 hours, and 4 hours after completion of the exercise by the following measuring method. The uric acid concentrations (mg/dL) at immediately after completion of exercise and at 4 hours after completion of exercise were determined by allowing peroxidase (POD) to act on hydrogen peroxide (H2O2), generated by oxidative decomposition of uric acid in a sample by the action of uricase, in the presence of 4-aminoantipyrine (4-AA) and a color former for oxidative condensation to generate a quinone dye (uricase-POD method). The resulting quinone dye is colorimetrically measured to calculate the change in plasma uric acid level.

[6] = system: ddY male mice; assay: Oxygen consumption during non-exercise in mice (reference example 1); format: in vivo, mouse; settings: 5 times a week for 4 weeks
Protocol: In order to verify whether orotic acid has an effect of decreasing the oxygen consumption during non-exercise or not, the following test was performed. Thirty-two ddY male mice (6-week old) bred in a thermostatic animal chamber of 24±2° C. for one week or more under a light-dark cycle of 12 hours (lighting from 8:00 to 20:00) were prepared. These mice were divided into two groups. Each mouse in one group (control group: CTL group) was administered with 0.5 mass % carboxymethyl cellulose solution (CMC solution) in an amount of 10 mL per 1 kg of mouse body weight. Each mouse in the other group (orotic acid administration group: OA group) was administered with orotic acid (50 mg/mL) suspended in 0.5 mass % CMC solution in an amount of 10 mL per 1 kg of mouse body weight. These administrations were performed 5 times a week for successive 4 weeks (20 times in total) for each mouse. Each mouse was transferred to a metabolism measurement chamber at 19:00 on the day of last administration to start fasting, and the oxygen consumption (VO2 [mL/min]) and carbon dioxide production volume (VCO2 [mL/min]) during the dark period from 20:00 to 8:00 on the following day were measured. […] In addition, the respiratory quotient (RER) of each mouse was calculated as a value obtained by dividing the carbon dioxide production volume by the oxygen consumption.

[7] = system: healthy women performing bike exercise; assay: Change in energy consumption after bike exercise; format: in vivo, human; settings: one tablet (200 mg) before exercise
Protocol: Six 22-year-old healthy women were divided into three groups of two. All the women were fasted for 24 hours (allowed only to drink water or tea), and two women of one group ingested one tablet of the orotic acid-containing throat candy (OA mouth-dissolving tablet), two women of another group ingested one tablet of the free form orotic acid monohydrate-containing tablets manufactured in Example 2 (OA tablet), and two women of the remaining group ingested one tablet of the placebo throat candy (non-ingestion), and the women performed bike exercise (exercise intensity: […]) for 30 minutes. Changes in energy consumption and changes in plasma uric acid level were measured at 2 hours, 3 hours, and 4 hours after completion of the exercise by the following measuring method. Exhalation was analyzed at immediately after completion of exercise and at 2 hours, 3 hours, and 4 hours after completion of exercise with AERO MONITOR AE 300S manufactured by Minato Medical Science Co., Ltd. Oxygen uptake volume and carbon dioxide production volume were measured, and the energy consumption (kcal/day) was determined by the following expression (1) to calculate the change in energy consumption. Energy consumption (kcal/day)=(3.9×oxygen uptake volume)+(1.1×carbon dioxide production volume) (1) Method for Measuring Change in Plasma Uric Acid Level

## O=C(O)c1cc(=O)[nH]c(=O)[nH]1 [orotic acid]
[1]
  carbon dioxide production volume (VCO2) compared to control group: significantly decreased
  respiratory quotient (RER) compared to control group: not a significant difference
[1]; orotic acid 50 mg/mL suspension 10 mL/kg
  oxygen consumption (VO2) compared to control group: significantly decreased
[2]; subject A, 400 mg oral
  heart rate: did not have a considerable irregularity in heart rate
  sense of discomfort felt to be caused by hypoxia: merely slightly improved
[2]; subject A, 400 mg oral (two swallowed tablets of free form orotic acid monohydrate), SpO2 decreased to 84%
  recovery of SpO2 level after oral administration: hardly recovered
[2]; subject A, 400 mg orotic acid sublingual (mixed with L-carnitine, in wafer paper), SpO2 83% to 84% before administration
  SpO2 level about 30 minutes after sublingual administration: 88%
[2]; subject A, 400 mg sublingual
  SpO2 level stably maintained until leaving the room: about 88%
  heart rate: no considerable irregularity in heart rate
  sense of discomfort felt to be caused by hypoxia: disappeared soon after ingestion of orotic acid
[2]; subject A, 400 mg sublingual, until leaving the room
  time for which the increased SpO2 level was stably maintained: at least 5 hours
[2]; subject B, 400 mg sublingual
  heart rate before and after administration: hardly changed
  symptoms such as light sleepiness and reduced concentration: cancelled
[2]; subject B, 400 mg sublingual, SpO2 82% before, increased at about 30 minutes after administration
  SpO2 level recovered after sublingual administration: 86%
[2]; subject C, 200 mg sublingual
  symptoms of altitude sickness, such as headache and bad feeling: disappeared
[2]; subject C, 200 mg sublingual at 2 hours and 40 minutes after entering the room
  SpO2 level recovered after sublingual administration: higher than 80%
[2]; subject C, 400 mg swallowed before dissolution of wafer paper (same as oral administration), SpO2 decreased to 70%
  recovery of SpO2 level: no recovery in the SpO2 level was observed
[3]
  SpO2 level at the same apnea time, compared with no orotic acid (placebo throat candy): higher than that when orotic acid was not ingested
[4]; experiments using mice, oral administration, at least three weeks needed for a significant difference
  effect of oral administration on the day of administration or within one week: not observed
[4]; oral 250 mg/kg and 500 mg/kg, five times a week, 3 weeks
  limit swimming time: prolonged depending on the dose of orotic acid
[5]; orotic acid ingested by oral absorption as throat candy
  change of uric acid concentration between immediately after exercise and 4 hours after exercise (decrease): 0.05 mg/dL
[5]; orotic acid ingested by oral administration
  change of uric acid concentration between immediately after exercise and 4 hours after exercise (increase): 0.1 mg/dL
[6]
  respiratory quotient (RER) compared to control group: not a significant difference
[6]; dark period
  carbon dioxide production volume (VCO2) compared to control group: significantly decreased
[6]; dark period, orotic acid 50 mg/mL suspension 10 mL/kg
  oxygen consumption (VO2) compared to control group: significantly decreased
[7]; oral absorption as throat candy
  decrease in energy consumption at 2, 3 and 4 hours after bike exercise compared to immediately after exercise: remarkable compared to that when orotic acid was ingested by oral administration
[7]; oral administration
  energy consumption at 2, 3 and 4 hours after bike exercise compared to immediately after exercise: decreased
